# Data from ChEMBL document CHEMBL1143063, “Discovery of 3-piperidinyl-1-cyclopentanecarboxamide as a novel scaffold for highly potent CC chemokine receptor 2 antagonists” (J Med Chem, 2007).
# The source made the active and inactive calls. The rule behind the calls is not given here.
# How the values were obtained:
# [1] = molecular target: T1, C-C chemokine receptor type 2 (Homo sapiens, UniProt P41597); experiment: Displacement of [125]hMCP1 from human CCR2 receptor expressed in human monocytes at 1 uM; format: cell-based
# Target sequence in this assay (P41597 whole entry, looked up): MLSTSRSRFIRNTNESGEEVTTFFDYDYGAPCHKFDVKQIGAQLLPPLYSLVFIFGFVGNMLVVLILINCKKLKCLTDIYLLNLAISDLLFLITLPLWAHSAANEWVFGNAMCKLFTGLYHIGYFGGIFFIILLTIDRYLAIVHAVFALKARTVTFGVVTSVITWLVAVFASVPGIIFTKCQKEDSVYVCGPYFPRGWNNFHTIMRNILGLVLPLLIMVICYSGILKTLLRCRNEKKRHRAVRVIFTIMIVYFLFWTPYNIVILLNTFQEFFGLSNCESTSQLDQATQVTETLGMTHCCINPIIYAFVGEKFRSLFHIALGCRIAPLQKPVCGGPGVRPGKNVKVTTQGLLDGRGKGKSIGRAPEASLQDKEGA
# [2] = Plasma clearance in rat; format: ADME, organism-based
# [3] = molecular target: T1, C-C chemokine receptor type 2; experiment: Displacement of [125]hMCP1 from human CCR2 receptor expressed in human monocytes; format: cell-based
# [4] = molecular target: C-C chemokine receptor type 5 (Homo sapiens, UniProt P51681); experiment: Displacement of MIP1alpha from CCR5 receptor
# C-C chemokine receptor type 5, sequence (P51681 whole entry): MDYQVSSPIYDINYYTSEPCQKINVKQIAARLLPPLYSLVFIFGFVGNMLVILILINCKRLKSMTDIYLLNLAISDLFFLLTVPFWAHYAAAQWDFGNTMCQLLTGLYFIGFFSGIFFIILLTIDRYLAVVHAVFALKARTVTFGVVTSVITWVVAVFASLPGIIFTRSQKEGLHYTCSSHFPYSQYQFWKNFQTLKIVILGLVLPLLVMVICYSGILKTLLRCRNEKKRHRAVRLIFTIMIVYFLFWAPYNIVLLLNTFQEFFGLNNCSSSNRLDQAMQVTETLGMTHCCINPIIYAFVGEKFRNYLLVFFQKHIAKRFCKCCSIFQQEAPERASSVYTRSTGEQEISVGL
# [5] = molecular target: C-C chemokine receptor type 2 (Mus musculus, UniProt P51683); experiment: (§1) Displacement of [125]hMCP1 from mouse CCR2 receptor expressed in CHO cells; format: cell-based
# C-C chemokine receptor type 2 (Mus musculus, UniProt P51683), sequence (P51683 whole entry): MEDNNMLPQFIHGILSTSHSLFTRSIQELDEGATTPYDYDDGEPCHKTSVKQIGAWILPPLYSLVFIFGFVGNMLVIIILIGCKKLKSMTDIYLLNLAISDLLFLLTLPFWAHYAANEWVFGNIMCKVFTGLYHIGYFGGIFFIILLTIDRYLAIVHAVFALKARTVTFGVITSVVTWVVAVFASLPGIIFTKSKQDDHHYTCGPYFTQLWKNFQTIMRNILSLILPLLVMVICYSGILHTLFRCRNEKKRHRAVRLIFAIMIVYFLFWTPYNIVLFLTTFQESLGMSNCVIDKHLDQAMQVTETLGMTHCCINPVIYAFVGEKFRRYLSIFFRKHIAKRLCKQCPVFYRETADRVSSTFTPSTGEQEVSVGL
# [6] = Half life in rat; format: ADME, organism-based; settings: in vivo
# [7] = Volume of distribution in rat; format: ADME, organism-based; settings: in vivo, read-out: Vss
# [8] = Oral bioavailability in rat; format: ADME, organism-based; settings: in vivo
# [9] = molecular target: C-C chemokine receptor type 2 (Mus musculus) (UniProt P51683); experiment: as §1; format: cell-based
# C-C chemokine receptor type 2 (Mus musculus), sequence (P51683 whole entry, looked up): as the sequence (P51683 whole entry) above
# [10] = molecular target: C-C chemokine receptor type 2 (Mus musculus) (UniProt P51683); experiment: Displacement of [125]hMCP1 from mouse CCR2 receptor expressed in CHO cells at 1 uM; format: cell-based
# [11] = molecular target: T1, C-C chemokine receptor type 2; experiment: Antagonist activity against human CCR2 receptor assessed as inhibition of MCP1-induced calcium flux in human monocytes; format: functional, cell-based
# Target sequence in this assay (P41597 whole entry): as the sequence (P41597 whole entry, looked up) above
structure (smiles),measurement,setting,value
O=C(NCc1cc(C(F)(F)F)cc(C(F)(F)F)c1)[C@@H]1CC[C@@H](N2CCC(c3ccccc3)CC2)C1,Activity,[1],25%
C[C@H]1CN([C@@H]2CC[C@](C)(C(=O)NCc3cc(C(F)(F)F)cc(C(F)(F)F)c3)C2)CC[C@@]12C=Cc1ccccc12,clearance,[2],50 mL/min/kg
same,IC50,[3],1.3 nM
same,IC50,[4],630 nM
same,IC50,[5],130 nM
same,half-life,[6],486 min
same,Vd,[7],6 L/kg
same,bioavailability,[8],15%
O=C(NCc1cc(C(F)(F)F)cc(C(F)(F)F)c1)[C@H]1CC[C@@H](N2CCC3(C=Cc4ccccc43)CC2)C1,IC50,[3],7.5 nM
same,Activity,[9],inactive
C[C@]1(C(=O)NCc2cc(C(F)(F)F)cc(C(F)(F)F)c2)CC[C@@H](N2CCC3(C=Cc4ccccc43)CC2)C1,IC50,[3],47 nM
same,Activity,[10],27%
O=C1C(CCN2CCC(c3ccccc3)CC2)CCCN1Cc1cc(C(F)(F)F)cc(C(F)(F)F)c1 (centres undefined),Activity,[3],inactive
O=C1C(CCN2CCC(c3ccccc3)CC2)CCN1Cc1cc(C(F)(F)F)cc(C(F)(F)F)c1 (centres undefined),Activity,[3],inactive
O=C(NCc1cc(C(F)(F)F)cc(C(F)(F)F)c1)C1CCC(N2CCC(c3ccccc3)CC2)C1 (centres undefined),IC50,[3],65 nM
O=C(NCc1cc(C(F)(F)F)cc(C(F)(F)F)c1)[C@@H]1CC[C@H](N2CCC(c3ccccc3)CC2)C1,Activity,[1],30%
CC1C[C@@H](N2CC[C@@]3(C=Cc4ccccc43)[C@@H](C)C2)C[C@H]1C(=O)NCc1cc(C(F)(F)F)cc(C(F)(F)F)c1 (some centres undefined),IC50,[3],> 1000 nM
same,Activity,[9],inactive
C[C@H]1CN([C@@H]2CC[C@H](C(=O)NCc3cc(C(F)(F)F)cc(C(F)(F)F)c3)C2)CC[C@@]12C=Cc1ccccc12,IC50,[3],1.4 nM
same,Activity,[10],27%
same,IC50,[11],2.3 nM
O=C(NCc1cc(C(F)(F)F)cc(C(F)(F)F)c1)C1CCCC(N2CCC(c3ccccc3)CC2)C1 (centres undefined),Activity,[1],23%
O=C(NCc1cc(C(F)(F)F)cc(C(F)(F)F)c1)[C@H]1CC[C@@H](N2CCC(c3ccccc3)CC2)C1,IC50,[3],36 nM
O=C(NCc1cc(C(F)(F)F)cc(C(F)(F)F)c1)[C@H]1CC[C@H](N2CCC(c3ccccc3)CC2)C1,Activity,[1],44%
